test system: not listed separately; assay: Cmax in rats; type: ADME, organism-based; conditions: rat, in vivo

| Cmax | Compound |
| --- | --- |
| 168 ng/mL | C/C(=C(\F)C(=O)Nc1ccc(-c2ccccc2S(N)(=O)=O)cc1Br)c1cccc(C(=N)N)c1 |
| 630 ng/mL | C/C(=C(\F)C(=O)Nc1ccc(-c2ccccc2S(N)(=O)=O)cc1Br)c1cccc(C(=N)NO)c1 |

test system: not listed separately; assay: Oral bioavailability in dog; type: ADME, organism-based, Canis lupus familiaris; conditions: in vivo

| bioavailability | Compound |
| --- | --- |
| < 5% | N=C(N)c1cccc(/C(=C(/F)C(=O)Nc2ccc(-c3ccccc3S(N)(=O)=O)cc2)n2cccn2)c1 |
| 25% | N=C(NO)c1cccc(/C(=C(/F)C(=O)Nc2ccc(-c3ccccc3S(N)(=O)=O)cc2)n2cccn2)c1 |

target: Coagulation factor X (Homo sapiens, UniProt P00742); assay: Inhibitory concentration to coagulation factor X; conditions: not given
Sequence (P00742 41-179 limits assumed): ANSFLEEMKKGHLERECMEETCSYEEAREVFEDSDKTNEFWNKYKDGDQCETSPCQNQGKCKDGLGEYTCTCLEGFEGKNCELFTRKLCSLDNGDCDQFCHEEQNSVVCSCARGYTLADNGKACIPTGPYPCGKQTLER
Sequence (P00742 235-488 limits assumed): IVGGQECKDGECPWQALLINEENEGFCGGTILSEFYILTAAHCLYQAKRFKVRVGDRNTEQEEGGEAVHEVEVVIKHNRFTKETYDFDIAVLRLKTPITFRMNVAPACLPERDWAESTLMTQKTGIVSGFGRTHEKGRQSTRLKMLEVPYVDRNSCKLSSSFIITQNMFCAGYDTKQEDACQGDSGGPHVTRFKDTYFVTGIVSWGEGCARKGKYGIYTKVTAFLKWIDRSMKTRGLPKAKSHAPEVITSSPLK

| IC50 | Compound |
| --- | --- |
| 750 nM | C/C(=C(\F)C(=O)Nc1ccc(-c2ccccc2S(N)(=O)=O)cc1)c1cccc(C(=N)NNc2ccccc2)c1 |
| 28 nM | CNNC(=N)c1cccc(/C(C)=C(/F)C(=O)Nc2ccc(-c3ccccc3S(N)(=O)=O)cc2)c1 |
| 5910 nM | C/C(=C(\F)C(=O)Nc1ccc(-c2ccccc2S(N)(=O)=O)cc1)c1ccc2[nH]nc(N)c2c1 |
| 48 nM | CNNC(=N)c1cccc(/C(C)=C2/CC(=O)N(c3ccc(-c4ccccc4S(N)(=O)=O)cc3)C2=O)c1 |
| 1590 nM | C/C(=C(\F)C(=O)Nc1ccc(-c2ccccc2S(N)(=O)=O)cc1F)c1cccc(C(=N)NO)c1 |
| 420 nM | C/C(=C(\F)C(=O)Nc1ccc(-c2ccccc2S(N)(=O)=O)cc1)c1cccc(C(=N)NNCC(F)(F)F)c1 |
| 41 nM | C/C(=C(\F)C(=O)Nc1ccc(-c2ccccc2S(N)(=O)=O)cc1Cl)c1cccc(C(=N)NN)c1 |
| 890 nM | C/C(=C(\F)C(=O)Nc1ccc(-c2ccccc2S(N)(=O)=O)cc1)c1cccc(C(=N)N2CCC2)c1 |
| 110 nM | C/C(=C(\F)C(=O)Nc1ccc(-c2ccccc2S(N)(=O)=O)cc1F)c1cccc(C(=N)NN)c1 |
| 710 nM | C/C(=C1\CC(=O)N(c2ccc(-c3ccccc3S(N)(=O)=O)cc2)C1=O)c1cccc(C(=N)NO)c1 |
| 1 nM | N=C(N)c1cccc(/C(=C(/F)C(=O)Nc2ccc(-c3ccccc3S(N)(=O)=O)cc2)n2cccn2)c1 |
| 750 nM | C/C(=C(\F)C(=O)Nc1ccc(-c2ccccc2S(N)(=O)=O)cc1Cl)c1cccc(C(=N)NO)c1 |
| 57 nM | C/C(=C(\F)C(=O)Nc1ccc(-c2ccccc2S(N)(=O)=O)cc1Br)c1cccc(C(=N)NN)c1 |
| 180 nM | C/C(=C1\CC(=O)N(c2ccc(C(=O)N3CCCC3)cc2)C1=O)c1cccc(C(=N)N)c1 |
| 440 nM | C/C(=C(\F)C(=O)Nc1ccc(-c2ccccc2S(N)(=O)=O)cc1)c1cccc(C(=N)NO)c1 |
| 890 nM | C/N=C(\N)c1cccc(/C(C)=C(/F)C(=O)Nc2ccc(-c3ccccc3S(N)(=O)=O)cc2)c1 |
| 490 nM | C/C(=C(\F)C(=O)Nc1ccc(-c2ccccc2S(N)(=O)=O)cc1)c1cccc(C(=N)NN(C)C)c1 |
| 120 nM | CC(c1cccc(C(=N)N)c1)C1CC(=O)N(c2ccc(-c3ccccc3S(N)(=O)=O)cc2)C1=O (stereo unspecified) |
| 29 nM | C/C(=C1\CC(=O)N(c2ccc(C(C)(C)C)cc2)C1=O)c1cccc(C(=N)N)c1 |
| 3790 nM | N=C(NO)c1cccc(/C(=C(/F)C(=O)Nc2ccc(-c3ccccc3S(N)(=O)=O)cc2)n2cccn2)c1 |
| 78 nM | C/C(=C1\CC(=O)N(c2ccc(-c3ccccc3S(N)(=O)=O)cc2)C1=O)c1cccc(C(=N)NN)c1 |
| 253 nM | C/C(=C(\F)C(=O)Nc1ccc(-c2ccccc2S(N)(=O)=O)cc1)c1cccc(C(=N)NC#N)c1 |
| 1180 nM | C/C(=C(\F)C(=O)Nc1ccc(-c2ccccc2S(N)(=O)=O)cc1Br)c1cccc(C(=N)NO)c1 |

target: Prothrombin (Homo sapiens, UniProt P00734); assay: Inhibitory concentration required against Thrombin; conditions: not given

| IC50 | Compound |
| --- | --- |
| 10700 nM | C/C(=C1\CC(=O)N(c2ccc(C(=O)N3CCCC3)cc2)C1=O)c1cccc(C(=N)N)c1 |
| 1600 nM | C/C(=C(\CC(N)=O)C(=O)Nc1ccc(-c2ccccc2S(N)(=O)=O)cc1)c1cccc(C(=N)N)c1 |
| 670 nM | C/C(=C1\CC(=O)N(c2ccc(-c3ccccc3S(N)(=O)=O)cc2)C1=O)c1cccc(C(=N)N)c1 |
| 76 nM | C/C(=C1\CC(=O)N(c2ccc(C(C)(C)C)cc2)C1=O)c1cccc(C(=N)N)c1 |

From ChEMBL document CHEMBL1136273, “Design and synthesis of factor Xa inhibitors and their prodrugs” (Bioorg Med Chem Lett, 2003)
